Measured values: patent US6565891B1, “Nutritional supplement for children” (Tsar Health Private Ltd., priority 2002, dated 2003)

Columns and labels:
[1] = in vivo; cited from earlier work
Thymulin activity = test: Zinc dose response: thymulin activity; type: in vivo, human; details: children age 4-12 years
Method: (§1) The basic concept underlying the assessment of the most optimum nutrient amounts for a given age group uses the principle of“dose-response curves”. At least four groups of individuals were provided with various amounts of a given nutrient and their immune responses were measured using established and accepted techniques. The amount of a nutrient that gave the best response was considered the optimum amount. Dose response curves were determined for all vitamins and trace elements considered essential for human health, particularly immunity.
(§2) The ratio of radioactivity in the test samples divided by radioactivity in control samples gave the “stimulation response” shown in FIGS. 1 and 2.

Interleukin-2 = test: Zinc dose response: interleukin-2; type: in vivo, human; details: children age 4-12 years, median (standard deviation)
Method: as §1, §2

Antibody response = test: Zinc dose response: antibody response; type: in vivo, human; details: children age 4-12 years
Method: as §1, §2

blood lymphocytes = test: Zinc dose response: lymphocyte response to PHA (stimulation index); type: in vivo, human; details: children age 4-12 years, diet zinc 5 mg, median (standard deviation)
Method: as §1
Data for the dose response curve for zinc in a group of 4 to 12 year old children is shown in FIGS. 1 and 2, with the total amount of zinc taken is shown for each group. To determine the magnitude of immune response, an aliquot of blood was withdrawn from each subject in the study, blood lymphocytes were separated, washed and mixed with the mitogen phytohemagglutinin (PHA) in previously determined optimum amount. The optimum amount of PHA used in the experiments was predetermined by a set of dose response curves using lymphocytes of a healthy donor and four different concentrations of PHA. After culture in a sterile environment for 72 hours, the cells were washed and mixed with radioactive thymidine. The same steps were undertaken in a control sample in which only the culture medium was used, not PHA. The cells were washed and radioactivity determined.
as §2

Row | SMILES | biologic half-life in the body [1] | Thymulin activity (median reciprocal titre) (Thymulin activity; 7 mg supplemental zinc) | Thymulin activity (median reciprocal titre) (Thymulin activity; 20 mg supplemental zinc) | Thymulin activity (median reciprocal titre) (Thymulin activity; 50 mg supplemental zinc) | Interleukin-2 (Interleukin-2; 7 mg supplemental zinc) | Interleukin-2 (Interleukin-2; 20 mg supplemental zinc) | Interleukin-2 (Interleukin-2; 50 mg supplemental zinc) | Antibody response (median reciprocal titre) (Antibody response; 7 mg supplemental zinc) | Antibody response (median reciprocal titre) (Antibody response; 20 mg supplemental zinc) | Antibody response (median reciprocal titre) (Antibody response; 50 mg supplemental zinc) | Lymphocyte response to PHA (stimulation index) (blood lymphocytes; 7 mg supplemental zinc) | Lymphocyte response to PHA (stimulation index) (blood lymphocytes; 20 mg supplemental zinc) | Lymphocyte response to PHA (stimulation index) (blood lymphocytes; 50 mg supplemental zinc)
1 | Cc1ncc(C[n+]2csc(CCO)c2C)c(N)n1 [Thiamin] | about 15 days |  |  |  |  |  |  |  |  |  |  |  | 
2 | [Zn] [zinc] |  | 216 | 187 | 166 | 16(2.0) units/ml | 11(1.5) units/ml | 8(1.3) units/ml | 318 | 129 | 73 | 86(11) | 54(9) | 41(8)
